One block for each molecule: values may come before it.
How the values were obtained:
[1] = target: T1, Human immunodeficiency virus type 1 reverse transcriptase (Human immunodeficiency virus 1, UniProt Q72547); experiment: Inhibition of HIV-1 RNase H
[2] = Inhibition of DNA polymerase (unknown origin); design: species or system Homo sapiens
[3] = target: T1, Human immunodeficiency virus type 1 reverse transcriptase; experiment: Inhibition of recombinant HIV-1 reverse transcriptase associated RNase H expressed in Escherichia coli BL21 (DE3) using 5-GTTTTCTTTTCCCCCCTGAC-3 Fluorescein/5CAAAAGAAAAGGGGGGACUG-3-Dabcyl as substrate incubated for 1 hr by multilabel counter plate reader method
[4] = Inhibition of HIV-1 RNA-dependent […]; design: species or system Human immunodeficiency virus 1
[5] = system: Human immunodeficiency virus 1; experiment: Antiviral activity against HIV-1 harboring L100I mutant infected in human MT4 cells assessed as virus-induced cytopathicity treated for 5 days by MTT assay; assay type: functional, organism-based; settings: Human immunodeficiency virus 1, MT4, 120 h
[6] = target: T1, Human immunodeficiency virus type 1 reverse transcriptase; experiment: Inhibition of recombinant HIV-1 reverse transcriptase associated RNA-dependent DNA polymerase activity incubated for 30 mins by liquid scintillation method
[7] = Inhibition of Escherichia coli DNA polymerase I
[8] = target: T1, Human immunodeficiency virus type 1 reverse transcriptase; experiment: Inhibition of N-terminal 6-his-tagged HIV-1 reverse transcriptase RNase H (427 to 560 residues) transfected in Escherichia coli BL21 (DE3)
[9] = system: Human immunodeficiency virus 1; experiment: Antiviral activity against wild-type HIV-1 IIIB infected in human MT4 cells assessed as virus-induced cytopathicity treated for 5 days by MTT assay; assay type: functional, organism-based; settings: Human immunodeficiency virus 1, IIIB, MT4, 120 h
[10] = system: Human immunodeficiency virus 1; experiment: Antiviral activity against HIV-1 harboring reverse transcriptase […] mutant infected in human MT4 cells assessed as reduction in virus-induced cytopathic effect; assay type: functional, organism-based; settings: Human immunodeficiency virus 1, MT4
[11] = Cytotoxicity against HEK-293T cells assessed as reduction in cell growth measured for 72 hrs by MTT assay; assay type: toxicity, cell-based; settings: human
[12] = target: T1, Human immunodeficiency virus type 1 reverse transcriptase; experiment: Inhibition of HIV-1 reverse transcriptase associated RNA-dependent DNA polymerase
[13] = target: T1, Human immunodeficiency virus type 1 reverse transcriptase; experiment: Inhibition of HIV-1 RNase H polymerase activity
Hepatitis B virus [14] = experiment: Antiviral activity against HBV infected in human HepDES19 cells assessed as reduction in cccDNA accumulation by southern blot analysis; assay type: functional, organism-based
[15] = system: Human immunodeficiency virus 1; experiment: Antiviral activity against HIV1; assay type: functional, organism-based
[16] = Cytotoxicity against african green monkey Vero E6 cells incubated for 24 hrs by Cell-titer 96 cell proliferation assay; assay type: toxicity, cell-based, Vero C1008; settings: chlorocebus sabaeus
Hepatitis B virus [17] = experiment: Antiviral activity against HBV infected in AML12HBV10 cells assessed as reduction viral replication incubated for 48 hrs; assay type: functional, organism-based; settings: AML12HBV10, 48 h
Human alphaherpesvirus 1 [18] = experiment: Antiviral activity against HSV-1 KOS infected in African green monkey Vero cells assessed as reduction in virus induced cytopathogenicity by plaque reduction assay; assay type: functional, organism-based; settings: Human alphaherpesvirus 1, KOS
Human alphaherpesvirus 1 [19] = experiment: Antiviral activity against HSV-1 infected in African green monkey Vero cells by plaque reduction assay; assay type: functional, organism-based; settings: Human alphaherpesvirus 1, Vero
Human alphaherpesvirus 2 = experiment: Antiviral activity against HSV-2 infected in African green monkey Vero cells assessed as reduction in virus induced cytopathogenicity by plaque reduction assay; assay type: functional, organism-based; settings: Human alphaherpesvirus 2, Vero
TZM = experiment: Cytotoxicity against human TZM-bl cells assessed as reduction in viability incubated for 48 hrs by MTT assay; assay type: functional
[20] = system: Human immunodeficiency virus 1; experiment: Antiviral activity against wild type HIV-1 IIIB infected in human MT4 cells assessed as protection against virus-induced cytopathic effect incubated for 5 days by MTT assay; assay type: functional, organism-based; settings: Human immunodeficiency virus 1, IIIB, MT4, 120 h

IC50 [1]: 15 µM | IC50 [2]: > 50 µM
SMILES: COc1ccc2ccccc2c1/C=N/NC(=O)c1ccc(O)c(O)c1

IC50 [3]: 2 µM
SMILES: NC(=O)c1c(N)sc2c1CCCCC2

IC50 [4]: 1.4 µM
SMILES: O=C1Nc2ccccc2/C1=N/Nc1nc(-c2ccc(O)c(O)c2)cs1

SMILES: COC(=O)c1c(C)cc(O)c(=O)c(O)c1Br
EC50 [5]: 2.2 µM

IC50 [6]: 0.8 µM | IC50 [7]: 12.5 µM | IC50 [8]: 3.5 µM
SMILES: CC(C)(C)c1ccc(C(=O)N/N=C/c2c(O)ccc3ccccc23)cc1
EC50 [9]: 1.5 µM

SMILES: O=C(Oc1ccc2c(c1OC(=O)c1ccccc1)C(=O)c1ccccc1C2=O)c1ccccc1
IC50 [4]: 12 µM | EC50 [10]: > 100 µM | CC50 at 72 h [11]: ~100 µM

IC50 [12]: > 50 µM
SMILES: Nc1ccc(S(=O)(=O)N2CCN(C(=O)c3cc(O)c(O)c(O)c3)CC2)cc1

IC50 [6]: 9.5 µM | IC50 [1]: 1.3 µM
SMILES: N#Cc1ccc(-c2csc(NN=C3C(=O)Nc4ccccc43)n2)cc1

IC50 [6]: 9.8 µM | IC50 [1]: 10 µM
SMILES: Cn1c(-c2ccc(-c3ccccc3)cc2)cs/c1=N/N=C1\C(=O)Nc2ccc(Cl)cc21

IC50 [3]: 0.84 µM
SMILES: O=C(Nc1sc2c(c1C(=O)Nc1ccccn1)CCCCC2)c1ccc(O)c(O)c1

IC50 [13]: 13.5 µM | EC50 (Hepatitis B virus [14]): 5.6 µM
SMILES: COC(=O)c1c(C)cc(OC)c(=O)c(O)c1OC

IC50 [13]: 13.1 µM | IC50 [12]: 39.9 µM
SMILES: COc1ccccc1C(=O)N1CCC(NC(=O)c2cc(O)c(O)c(O)c2)CC1

IC50 [4]: 16.1 µM | IC50 [12]: 16.1 µM | EC50 [15]: 5 µM
SMILES: COc1cc(OC)cc(OC(=O)c2ccc(C(F)(F)F)cc2Nc2cc(Cl)ccc2C)c1
CC50 at 24 h [16]: > 50 µM

IC50 [8]: 1.86 µM | IC50 [12]: 20.5 µM
SMILES: O=C(Nc1nc2n(n1)C(c1ccccc1)C=C(c1ccccc1)N2)c1ccc(O)c(O)c1 (stereo not drawn)

IC50 [4]: 8 µM | IC50 [1]: 4.5 µM
SMILES: COc1ccc(-c2cccc(C(N)=O)c2)cc1/C=N/Nc1nc(-c2ccc([N+](=O)[O-])cc2)cs1

EC50 (Hepatitis B virus [17]): 0.93 µM
SMILES: COC(=O)c1c(C)cc(OC)c(=O)c(O)c1O

EC50 (Human alphaherpesvirus 1 [18]): 0.052 µM | EC50 (Human alphaherpesvirus 1 [19]): 0.052 µM | EC50 (Human alphaherpesvirus 2): 0.05 µM
SMILES: Cc1cc(O)c(=O)c(O)c(O)c1C(=O)c1ccc(-c2ccccc2)cc1

IC50 [13]: 7 µM | IC50 [12]: 17 µM
SMILES: Nc1nn(C(=O)c2ccc(Cl)cc2)c(N)c1C(=S)Nc1ccccc1
CC50 (TZM): 44 µM | EC50 [20]: 25 µM

EC50 (Human alphaherpesvirus 1 [19]): 0.22 µM
SMILES: COc1cc(C)c(C(=O)c2ccc(-c3ccccc3)cc2)c(O)c(O)c1=O

IC50 [1]: 3 µM | IC50 [2]: 2 µM
SMILES: COc1ccc2ccccc2c1/C=N/NC(=O)c1ccc(C(C)(C)C)cc1

IC50 [4]: 4 µM | IC50 [1]: 6 µM
SMILES: COc1c(/C=C/C(=O)c2ccc(-c3ccccc3)cc2)ccc2ccccc12

IC50 [3]: 0.53 µM
SMILES: O=c1oc(-c2ccc(O)c(O)c2)nc2sc3ccccc3c12

IC50 [13]: 1.5 µM | EC50 (Hepatitis B virus [14]): 6 µM | EC50 (Human alphaherpesvirus 1 [18]): 0.19 µM | EC50 (Human alphaherpesvirus 1 [19]): 0.19 µM | EC50 (Human alphaherpesvirus 2): 0.4 µM
SMILES: COC(=O)c1c(C)cc(O)c(=O)c(O)c1O

IC50 [8]: 13.1 µM | IC50 [12]: > 100 µM
SMILES: CC1=CC(c2ccccc2)n2nc(NC(=O)CCCc3ccc(C)cc3)nc2N1 (stereo not drawn)

IC50 [3]: > 100 µM | IC50 [4]: 79 µM
SMILES: O=C1c2ccccc2C(=O)c2c1ccc(O)c2O [ATHRAQUINONES A]

— ChEMBL document CHEMBL5518155, “Recent advances on dual inhibitors targeting HIV reverse transcriptase associated polymerase and ribonuclease H” (Eur J Med Chem, 2023)
